Marks after values point to notes of the source that are not given here.
Test system: CGRP-induced increase in laser Doppler facial blood flow
Test: Inhibition of CGRP-induced increase in laser Doppler facial blood flow in non-human primate
Assay type: in vivo, common marmoset (Callithrix jacchus)
Conditions: pretreat −30 min, hαCGRP 10 μg/kg i.v.
Protocol: FIG. 4. […] Data are peak % change from baseline±sem, with each animal serving as its own control.
Saturation/Scatchard Analysis. […] Saturation data were analyzed using a one site binding equation to estimate apparent equilibrium dissociation constant (Kd) and the maximum number of binding sites (Bmax) (Prizm v4.0, Graphpad). […] Functional Antagonism/Schild analysis. Agonist stimulation of CGRP receptor complex leads to cyclic AMP (adenosine 3′5′-cyclic monophosphate) production via Gs-dependent activation of an adenylate cyclase (Juaneda C et al., TiPS, 2000; 21:432-438). Consequently, CGRP receptor antagonists inhibit CGRP-induced cyclic AMP formation in SK-N-MC cells which natively express the CGRP receptor complex (Doods H et al., Br J Pharmacol, 2000; 129(3):420-423). […] A Schild analysis format was used, which allowed investigation of the mechanism of antagonism. […] Various concentrations of CGRP were added and the cells were allowed to incubate 30 min at room temperature. The cells were lysed with lysis reagent and cAMP concentrations were determined by HTRF according to the manufacturer's instructions. A standard curve using known quantities of cAMP was evaluated in parallel to allow conversion of HTRF ratio to nM cAMP. The resulting curves were then evaluated using a Gaddum/Schild equation individually and with global fitting (Prizm v4.0, Graphpad). […] To obtain a global fit the following parameters were shared (top, bottom, logEC50, Hill slope and pA2) and all curves were fit simultaneously. […] Non-Terminal Method for Assessing In Vivo Efficacy of Small Molecule CGRP-Receptor Antagonists in Mammals Overview. […] Non-human primates (e.g., marmosets) are the only animals known to have human-like CGRP receptor pharmacology conferred by the presence of the specific amino acid residue (Trp74) in their RAMP1 sequence which is responsible for the phenotype of the human receptor (Mallee et al. J Biol Chem 2002 277:14294). Since current migraine models primarily use rats (Escott et al. Brain Res 1995 669:93; Williamson et al. Cephalalgia 1997 17:525), or are invasive, terminal procedures in primates (Doods et al. Br J Pharmacol 2000 129:420), a novel non-invasive, survival model in non-human primates for in vivo efficacy assessment of CGRP-receptor antagonists was developed. […] Peptide and small-molecule CGRP-receptor antagonists were used to validate the non-human primate model. […] Animals. Adult male and female common marmosets (Callithrix jacchus) purchased from Harlan and weighing 350-550 g served as subjects. Anesthesia & Surgical Preparation. Animals are anesthetized by isoflurane inhalation in an induction chamber (4-5% rapid induction, maintained with 1-2.5%; Solomon et al., 1999).

O=C(O[C@@H]1CC[C@@H](c2cccc(F)c2F)Cc2cccnc21)N1CCC(n2c(=O)[nH]c3ncccc32)CC1 [Example 20]
% Inhibition (0.1 mg/kg s.c., 15 min): 9.9%
% Inhibition (0.1 mg/kg s.c., 60 min): −6.7%
% Inhibition (0.1 mg/kg s.c., 105 min): −4.9%
% Inhibition (0.3 mg/kg s.c., 15 min): 28.8%
% Inhibition (0.3 mg/kg s.c., 60 min): 27.6* %
% Inhibition (0.3 mg/kg s.c., 105 min): 41.2* %
% Inhibition (3 mg/kg s.c., 15 min): 26.5%
% Inhibition (3 mg/kg s.c., 60 min): 36.7* %
% Inhibition (3 mg/kg s.c., 105 min): 39.0* %
% Inhibition (7 mg/kg s.c., 15 min): 25.1%
% Inhibition (7 mg/kg s.c., 60 min): 53.9* %
% Inhibition (7 mg/kg s.c., 105 min): 70.0* %
